According to the supplement of paper PMC11061612:

Experiments:
Assay in all cases: combination Emax (second highest fraction inhibited in the dose matrix, 72 h); higher = more inhibition; extreme values may be limits of the assay
A172 (Glioblastoma) = tested on: A172 (Glioblastoma)
Outline: (§1)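 Cell lines grown in DMEM/F12 or RPMI with 10% FBS were plated in 1536-well plates and held 24 hours at 37°C, 5% CO2 before 72 hours of exposure to two-drug dose matrices, with DMSO typically at 0.2%. CellTiter-Glo 2.0 luminescence gave viability, which was converted to inhibition. Vehicle wells were set to 0 and blank wells to 1. Combination Emax is the second-highest inhibition in the matrix, and Bliss excess is the observed combination effect minus the expected EA + EB − EA·EB, where EA and EB are the single-agent effects.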

[1] = tested on: BICR78 (Oral Cavity Carcinoma)
Outline: as §1

[2] = tested on: CAL-39 (Other Solid Carcinomas)
Outline: as §1

[3] = tested on: D-283MED (Other Solid Carcinomas)
Outline: as §1

[4] = tested on: ETK-1 (Biliary Tract Carcinoma)
Outline: as §1

[5] = tested on: GDM-1 (Acute Myeloid Leukemia)
Outline: as §1

H4 (Low Grade Glioma) = tested on: H4 (Low Grade Glioma)
Outline: as §1

[6] = tested on: HLE (Hepatocellular Carcinoma)
Outline: as §1

HuO9 (Osteosarcoma) = tested on: HuO9 (Osteosarcoma)
Outline: as §1

[7] = tested on: KG-1 (Acute Myeloid Leukemia)
Outline: as §1

MCF7 (Breast Carcinoma) = tested on: MCF7 (Breast Carcinoma)
Outline: as §1

MSTO-211H (Mesothelioma) = tested on: MSTO-211H (Mesothelioma)
Outline: as §1

[8] = tested on: NCI-H1688 (Small Cell Lung Carcinoma)
Outline: as §1

SK-MEL-1 (Melanoma) = tested on: SK-MEL-1 (Melanoma)
Outline: as §1

[9] = tested on: SLVL (B-Cell Non-Hodgkin's Lymphoma)
Outline: as §1

[10] = tested on: SNU-61 (Colorectal Carcinoma)
Outline: as §1

[11] = tested on: TYK-nu (Ovarian Carcinoma)
Outline: as §1

[12] = tested on: U-118-MG (Low Grade Glioma)
Outline: as §1

[13] = tested on: YT (Other Blood Carcinomas)
Outline: as §1

Row | Structure (SMILES) | combination Emax (A172 (Glioblastoma)) | combination Emax [1] | combination Emax [2] | combination Emax [3] | combination Emax [4] | combination Emax [5] | combination Emax (H4 (Low Grade Glioma)) | combination Emax [6] | combination Emax (HuO9 (Osteosarcoma)) | combination Emax [7] | combination Emax (MCF7 (Breast Carcinoma)) | combination Emax (MSTO-211H (Mesothelioma)) | combination Emax [8] | combination Emax (SK-MEL-1 (Melanoma)) | combination Emax [9] | combination Emax [10] | combination Emax [11] | combination Emax [12] | combination Emax [13]
1 | Cc1nc(Nc2ncc(C(=O)Nc3c(C)cccc3Cl)s2)cc(N2CCN(CCO)CC2)n1 [Dasatinib] + CC(=O)Nc1cccc(-n2c(=O)n(C3CC3)c(=O)c3c(Nc4ccc(I)cc4F)n(C)c(=O)c(C)c32)c1 [Trametinib] (first compound max 2 µM, 7x7, partner max 1 µM) | 0.512 | 0.435 | 0.944 | 0.419 | 0.781 | 0.76 | 0.393 | 0.414 | 0.541 | 0.419 | 0.112 | 0.747 | 0.249 | 0.854 | 0.663 | 0.626 | 0.71 | 0.557 | 0.318
2 | Cn1cnc2c(F)c(Nc3ccc(Br)cc3Cl)c(C(=O)NOCCO)cc21 [Selumetinib] + CC(C)n1c(=O)n(C)c2cnc3cc(F)c(-c4ccc(OCCCN5CCCCC5)nc4)cc3c21 [AZD1390] (first compound max 10 µM, 7x7, partner max 0.3 µM) | 0.257 | 0.3 | 0.643 | 0.148 | 0.122 | 0.165 | 0.13 | 0.122 | 0.626 | 0.307 | 0.084 | 0.162 | 0.223 | 0.838 | 0.448 | 0.389 | 0.548 | 0.178 | 0.16
3 | NC1(C(=O)N[C@@H](CCO)c2ccc(Cl)cc2)CCN(c2ncnc3[nH]ccc23)CC1 [Capivasertib] + CC(=O)c1c(C)c2cnc(Nc3ccc(N4CCNCC4)cn3)nc2n(C2CCCC2)c1=O [Palbociclib] (first compound max 10 µM, 7x7, partner max 10 µM) | 0.671 | 0.424 | 0.672 | 0.634 | 0.419 | 0.623 | 0.751 | 0.164 | 0.541 | 0.398 | 0.676 | 0.261 | 0.224 | 0.141 | 0.56 | 0.168 | 0.505 | 0.676 | 0.68
4 | Cn1cnc2c(F)c(Nc3ccc(Br)cc3Cl)c(C(=O)NOCCO)cc21 [Selumetinib] + CCN(CCO)CCCOc1ccc2c(Nc3cc(CC(=O)Nc4cccc(F)c4)[nH]n3)ncnc2c1 [AZD2811] (first compound max 10 µM, 7x7, partner max 1 µM) | 0.416 | 0.322 | 0.72 | 0.476 | 0.158 | 0.861 | 0.306 | 0.235 | 0.242 | 0.392 | 0.191 | 0.318 | 0.169 | 0.863 | 0.639 | 0.486 | 0.554 | 0.287 | 0.229
5 | CC(=O)c1c(C)c2cnc(Nc3ccc(N4CCNCC4)cn3)nc2n(C2CCCC2)c1=O [Palbociclib] + Cc1c2c(nn1C)CSCc1cc(n(C)n1)CSc1cc(c3ccccc3c1)OCCCc1c(C(=O)O)n(C)c3c-2c(Cl)ccc13 [AZD5991] (first compound max 10 µM, 7x7, partner max 1 µM) | 0.614 | 0.232 | 0.409 | 0.797 | 0.303 | 0.824 | 0.601 | 0.211 | 0.803 | 0.894 | 0.574 | 0.144 | 0.381 | 0.262 | 0.471 | 0.171 | 0.405 | 0.322 | 1
6 | Cn1cnc2c(F)c(Nc3ccc(Br)cc3Cl)c(C(=O)NOCCO)cc21 [Selumetinib] + C[C@@H]1COCCN1C2=NC(=NC(=C2)C3(CC3)[S@](=N)(=O)C)C4=C5C=CNC5=NC=C4 [AZD6738] (first compound max 10 µM, 7x7, partner max 10 µM) | 0.549 | 0.592 | 0.697 | 0.988 | 0.587 | 0.755 | 0.672 | 0.404 | 0.726 | 0.787 | 0.468 | 0.396 | 0.165 | 0.922 | 0.671 | 0.527 | 0.732 | 0.479 | 0.801
7 | C[C@@H](c1ccc2nccn2c1)n1nnc2ncc(-c3cnn(C)c3)nc21 [Savolitinib] + Cc1c2c(nn1C)CSCc1cc(n(C)n1)CSc1cc(c3ccccc3c1)OCCCc1c(C(=O)O)n(C)c3c-2c(Cl)ccc13 [AZD5991] (first compound max 1 µM, 7x7, partner max 1 µM) | 0.112 | 0.231 | 0.264 | 0.725 | 0.141 | 0.208 | 0.298 | 0.164 | 0.739 | 0.711 | 0.49 | 0.123 | 0.314 | 0.0746 | 0.374 | 0.151 | 0.295 | 0.258 | 1
